Read-outs that look alike come from different tables or passages of the source.
What was measured:
HeLa MKYP cells [1] = experiment: Human mitophagy assay (HeLa MKYP, mtKeima FACS, FCCP/oligomycin); format: cell-based; conditions: for Potency at 1 μM F/O toxin: Table 1; for Potency at 1 μM F/O toxin / activation at 6.3 µM: % activation of mitophagy at 6.3 μM treatment of the compound; for activation at 1.6 µM / activation at 6.3 µM / EC50: Homo sapiens, HeLa; for activation at 1.6 µM / activation at 6.3 µM: 6 h, read-out: Potency at 1 μM F/O toxin*; for activation at 1.6 µM / Potency at 1 μM F/O toxin*: Table 2, % activation of mitophagy at 1.6 μM treatment of the compound
Procedure: (§1) Briefly, HeLa MKYP cells were plated at 10,000 cells/well in 96 well plates along with compounds at various concentrations. Following 16 hrs of incubation, cells were treated with 1 uM FCCP/oligomycin for 6 hours, then analyzed via FACS for the presence of mitochondria in lysosomes (as determined by an emissions spectrum shift from the pH-sensitive mtKeima tag). Examples are shown in FIG. 1 through FIG. 13 below.

HeLa MKYP cells [2] = experiment: Toxicity / cell death measured by DAPI staining (take-up); format: cell-based; conditions: 50 μM; for Toxicity (% positive for DAPI take-up @ 50 μM): Table 1; for Toxicity (% positive for DAPI take-up at 50 μM)*: Table 3 Supplement A
Procedure: H2O2 treatment was performed as a control for cell death as measured by DAPI staining.
as §1, with “tag).” for “tag). Examples are shown in FIG. 1 through FIG. 13 below.”

[3] = Table 3, read-out: Potency at 1 μM F/O toxin* (EC50 of mitophagy activation)
[4] = Table 3 Supplement A, as measured in Table 3, read-out: Potency (EC50 Max Mitophagy) (μM)*

Structure (SMILES) | Toxicity (% positive for DAPI takeup @ 50 μM) (HeLa MKYP cells [2]; Table 3) | EC50 (HeLa MKYP cells [1]; [3]) | EC50 (HeLa MKYP cells [1]; [4]) | Toxicity (% positive for DAPI take-up at 50 μM)* (HeLa MKYP cells [2]) | further results
CCCCNc1ncnc2[nH]c(C(F)(F)F)cc12 [Compound 1] |  |  |  |  | Potency at 1 μM F/O toxin (HeLa MKYP cells [1]): 42.3%; Toxicity (% positive for DAPI take-up @ 50 μM) (HeLa MKYP cells [2]): 4.6%
CCCCNc1ncnc2[nH]c(-c3ccnn3C)cc12 [Compound 2] |  |  |  |  | Potency at 1 μM F/O toxin (HeLa MKYP cells [1]): 15.0%; Toxicity (% positive for DAPI take-up @ 50 μM) (HeLa MKYP cells [2]): 94.6%
CCCCNc1ncnc2[nH]c(C(OCC)C(F)(F)F)cc12 (stereo not drawn) [Compound 3] |  |  |  |  | Potency at 1 μM F/O toxin (HeLa MKYP cells [1]): 25.9%; Toxicity (% positive for DAPI take-up @ 50 μM) (HeLa MKYP cells [2]): 15.8%
CCCCNc1ncnc2[nH]c(CC(F)(F)F)cc12 [Compound 4] |  |  |  |  | Potency at 1 μM F/O toxin (HeLa MKYP cells [1]): 13.9%; Toxicity (% positive for DAPI take-up @ 50 μM) (HeLa MKYP cells [2]): 24.8%
CCCCNc1ncnc2[nH]c(C(OCC)C(F)(F)F)cc12 (stereo not drawn) [Compound 5] |  |  |  |  | Potency at 1 μM F/O toxin (HeLa MKYP cells [1]): 17.9%; Toxicity (% positive for DAPI take-up @ 50 μM) (HeLa MKYP cells [2]): 47.4%
CCCCNc1ncnc2[nH]c(-c3ccccc3)cc12 [Compound 6] |  |  |  |  | Potency at 1 μM F/O toxin (HeLa MKYP cells [1]): 52.0%; Toxicity (% positive for DAPI take-up @ 50 μM) (HeLa MKYP cells [2]): 90.0%
CCCCNc1ncnc2[nH]c(CC)cc12 [Compound 7] |  |  |  |  | Potency at 1 μM F/O toxin (HeLa MKYP cells [1]): 14.0%; Toxicity (% positive for DAPI take-up @ 50 μM) (HeLa MKYP cells [2]): 93.4%
CCCCNc1ncnc2[nH]c(C)cc12 [Compound 8] |  |  |  |  | Potency at 1 μM F/O toxin (HeLa MKYP cells [1]): 43.4%; Toxicity (% positive for DAPI take-up @ 50 μM) (HeLa MKYP cells [2]): 15.4%
FC(F)(F)c1cc2c(NCc3ccccc3)ncnc2[nH]1 [Compound 9] |  |  |  |  | activation at 1.6 µM (HeLa MKYP cells [1]): 35.1%; Toxicity (% positive for DAPI takeup @ 50 μM) (HeLa MKYP cells [2]; Table 2): 50.4%
CC(C)(Nc1ncnc2[nH]c(C(F)(F)F)cc12)c1ccccc1 [Compound 10] |  |  |  |  | activation at 1.6 µM (HeLa MKYP cells [1]): 17%; Toxicity (% positive for DAPI takeup @ 50 μM) (HeLa MKYP cells [2]; Table 2): 5.6%
FC(F)(F)c1cc2c(NC3(c4ccccc4)CC3)ncnc2[nH]1 [Compound 11] |  |  |  |  | activation at 1.6 µM (HeLa MKYP cells [1]): 20.8%; Toxicity (% positive for DAPI takeup @ 50 μM) (HeLa MKYP cells [2]; Table 2): 80.5%
CC(Nc1ncnc2[nH]c(C(F)(F)F)cc12)c1ccccc1 (stereo not drawn) [Compound 12] |  |  |  |  | activation at 1.6 µM (HeLa MKYP cells [1]): 88.4%; Toxicity (% positive for DAPI takeup @ 50 μM) (HeLa MKYP cells [2]; Table 2): 2.4%
FC(F)(F)c1cc2c(NC3COc4ccccc43)ncnc2[nH]1 (stereo not drawn) [Compound 13] |  |  |  |  | activation at 1.6 µM (HeLa MKYP cells [1]): 52.5%; Toxicity (% positive for DAPI takeup @ 50 μM) (HeLa MKYP cells [2]; Table 2): 39.7%
COc1ccc2c(c1)CCCC2Nc1ncnc2[nH]c(C(F)(F)F)cc12 (stereo not drawn) [Compound 14] |  |  |  |  | activation at 1.6 µM (HeLa MKYP cells [1]): 29.8%; Toxicity (% positive for DAPI takeup @ 50 μM) (HeLa MKYP cells [2]; Table 2): 95.5%
FC(F)(F)c1cc2c(NC3CCCc4ccccc43)ncnc2[nH]1 (stereo not drawn) [Compound 16] |  |  |  |  | Potency at 1 μM F/O toxin* (HeLa MKYP cells [1]): 10.1%; Toxicity (% positive for DAPI takeup @ 50 μM) (HeLa MKYP cells [2]; Table 2): 4.5%
FC(F)(F)c1cc2c(NC3CCc4ccccc43)ncnc2[nH]1 (stereo not drawn) [Compound 17] |  |  |  |  | activation at 1.6 µM (HeLa MKYP cells [1]): 14.8%; Toxicity (% positive for DAPI takeup @ 50 μM) (HeLa MKYP cells [2]; Table 2): 2.3%
FC(F)(F)c1cc2c(NC3CCc4ccccc43)ncnc2[nH]1 (stereo not drawn) [Compound 18] |  |  |  |  | Potency at 1 μM F/O toxin* (HeLa MKYP cells [1]): 14.3%; Toxicity (% positive for DAPI takeup @ 50 μM) (HeLa MKYP cells [2]; Table 2): 1.7%
FC(F)(F)c1cc2c(NCc3cncnc3)ncnc2[nH]1 [Compound 19] |  |  |  |  | activation at 6.3 µM (HeLa MKYP cells [1]; Table 3): 50.3%; Toxicity (% positive for DAPI takeup @ 50 μM) (HeLa MKYP cells [2]; human): 1.7%
FC(F)(F)c1cc2c(NCc3ccncn3)ncnc2[nH]1 [Compound 20] | 1.5% |  |  |  | activation at 6.3 µM (HeLa MKYP cells [1]; Table 3): 7.9%
FC(F)(F)c1cc2c(NCc3cnccn3)ncnc2[nH]1 [Compound 21] | 0.9% |  |  |  | activation at 6.3 µM (HeLa MKYP cells [1]; Table 3): 9.1%
COc1ncccc1CNc1ncnc2[nH]c(C(F)(F)F)cc12 [Compound 22] | 7.6% |  |  |  | activation at 6.3 µM (HeLa MKYP cells [1]; Table 3): 18.5%
Fc1cccc(CNc2ncnc3[nH]c(C(F)(F)F)cc23)c1Cl [Compound 23] | 4.5% |  |  |  | activation at 6.3 µM (HeLa MKYP cells [1]; Table 3): 87.7%
Fc1cc(Cl)cc(CNc2ncnc3[nH]c(C(F)(F)F)cc23)c1 [Compound 24] | 4.8% |  |  |  | activation at 6.3 µM (HeLa MKYP cells [1]; Table 3): 51.2%
FC(F)(F)c1cc2c(NCc3cccc(Cl)c3)ncnc2[nH]1 [Compound 25] | 20.3% |  |  |  | activation at 6.3 µM (HeLa MKYP cells [1]; Table 3): 49.9%
CC(C)[C@@H](Nc1ncnc2[nH]c(C(F)(F)F)cc12)c1cncnc1 [Compound 26] | 6.8% | 6.9 µM | 6.85 µM | 6.82% | 
CCCCNc1ncnc2[nH]c(C3CC3)nc12 [Compound 29] | 16.2% | 18.8 µM |  |  | 

Structure (SMILES) | Toxicity (% positive for DAPI takeup @ 50 μM) (HeLa MKYP cells [2]; Table 3) | EC50 (HeLa MKYP cells [1]; [3]) | EC50 (HeLa MKYP cells [1]; [4]) | Toxicity (% positive for DAPI take-up at 50 μM)* (HeLa MKYP cells [2]) | further results
c1coc(CNc2ncnc3[nH]c(C4CCC4)nc23)c1 [Compound 30] | 3.0% | > 50 µM |  |  | 
CCCCNc1ncnc2[nH]c(C3CCC3)nc12 [Compound 31] | 6.1% | > 50 µM |  |  | 
FC(F)(F)c1cc2c(NC3CCCc4ccccc43)ncnc2[nH]1 (stereo not drawn) [Compound 32] | 27.1% | > 50 µM |  |  | 
FC(F)(F)c1cc2c(NC3CCOc4ccccc43)ncnc2[nH]1 (stereo not drawn) [Compound 33] | 22.3% | 3.5 µM |  |  | 
FC(F)(F)c1cc2c(NC3COCc4ccccc43)ncnc2[nH]1 (stereo not drawn) [Compound 34] | 42.9% | > 50 µM |  |  | 
COc1cc(CNc2ncnc3[nH]c(C4CC4)nc23)ccn1 [Compound 35] | 7.1% | > 50 µM |  |  | 
c1ncc(CNc2ncnc3[nH]c(C4CC4)nc23)cn1 [Compound 36] |  | > 50 µM |  |  | Toxicity (% positive for DAPI takeup @ 50 μM) (HeLa MKYP cells [2]; human): 7.1%
FC(F)(F)c1cc2c(N[C@H]3COc4ccccc43)ncnc2[nH]1 [Compound 39] | 22.8% | 1.4 µM | 1.49 µM | 27.32% | 
C[C@H](Nc1ncnc2[nH]c(C(F)(F)F)cc12)c1ccccc1 [Compound 40] | 90.8% | 0.3 µM | 0.02 µM | 92.03% | 
FC(F)(F)c1cc2c(N[C@@H]3COc4ccccc43)ncnc2[nH]1 [Compound 41] | 29.2% | 14.9 µM | 14.9 µM | 29.25% | 
FC(F)(F)c1cc2c(N[C@H]3CCOc4ccccc43)ncnc2[nH]1 [Compound 42] | 37.7% | 5.6 µM | 5.64 µM | 37.66% | 
FC(F)(F)c1cc2c(NC3CCCc4ncncc43)ncnc2[nH]1 (stereo not drawn) [Compound 45] | 12.0% | > 50 µM | > 25 µM | 11.97% | 
C[C@H](Nc1ncnc2[nH]c(C3CC3)nc12)c1ccccc1 [Compound 46] | 27.6% | 3.2 µM | 3.17 µM | 27.61% | 
C[C@@H](Nc1ncnc2[nH]c(C3CC3)nc12)c1ccccc1 [Compound 47] | 12.3% | > 50 µM | > 25 µM | 12.33% | 
COc1ccccc1CNc1ncnc2[nH]c(C(F)(F)F)cc12 [Compound 48] | 24.7% | 2 µM |  |  | 
FC(F)(F)c1cc2c(NCc3cncnc3)ncnc2[nH]1 [Compound 49] |  | 11.7 µM |  |  | Toxicity (% positive for DAPI takeup @ 50 μM) (HeLa MKYP cells [2]; human): 23.0%
COc1ccc(CNc2ncnc3[nH]c(C(F)(F)F)cc23)c(OC)c1 [Compound 51] | 42.6% | 2.1 µM |  |  | 
c1ccc2c(c1)OCC2Nc1ncnc2[nH]cnc12 (stereo not drawn) [Compound 53] | 21.0% | 6.1 µM | 6.11 µM | 20.95% | 
c1ccc2c(c1)CC[C@@H]2Nc1ncnc2[nH]cnc12 [Compound 54] | 16.2% | 4.4 µM | 4.38 µM | 16.16% | 
c1ccc2c(c1)CC[C@H]2Nc1ncnc2[nH]cnc12 [Compound 55] | 10.3% | > 50 µM | > 25 µM | 10.31% | 
COc1ccccc1CNc1ncnc2nc[nH]c12 [Compound 56] | 12.4% | 10.8 µM | 10.8 µM | 12.42% | 
Clc1cccc(CNc2ncnc3nc[nH]c23)c1 [Compound 58] | 12.5% | 16 µM | 16 µM | 12.54% | 
c1ccc2c(c1)OCC[C@@H]2Nc1ncnc2[nH]cnc12 [Compound 59] | 17.0% | 1.8 µM | 1.69 µM | 19.76% | 
c1ccc(CCNc2ncnc3[nH]cnc23)cc1 [Compound 60] | 19.7% | 2.8 µM | 2.26 µM | 23.09% | 
OC[C@@H](Nc1ncnc2[nH]cnc12)c1ccccc1 [Compound 61] | 8.9% | > 50 µM | > 25 µM | 8.9% | 
c1ccc2c(c1)OCC[C@H]2Nc1ncnc2[nH]cnc12 [Compound 62] | 16.0% | > 50 µM | > 25 µM | 15.96% | 

— patent US20220162215A1, “COMPOSITIONS AND METHODS OF USING THE SAME FOR TREATMENT OF NEURODEGENERATIVE AND MITOCHONDRIAL DISEASE” (MITOKININ, INC., priority 2019, published 2022)
